From US5948754A, “Cyclic hexapeptides, their production and use” (Takeda Chemical Industries, Ltd., priority 1993, dated 1999)
Where a SMILES comes first, the peptide text is derived from it. [ ]: non-standard residue; d: D form. The star is where a group is joined. Piperazinyl(4-(2-MeOPh)) = COc1ccccc1N1CCN(*)CC1; Piperazinyl(4-Ph) = c1ccc(N2CCN(*)CC2)cc1; dGly(2-thienyl) = N[C@@H](C(=O)O)c1cccs1; d(tBuAla) = CC(C)(C)C[C@@H](N)C(=O)O

Assays:
[1] = molecular target: T1, endothelin A (ETA) receptors (Sus scrofa, UniProt Q29010); assay: Determination of ETA receptor binding activity ([125I]ET-1, swine ventricular muscle membrane fraction); details: [125I]ET-1 binding, 25° C., 1 hour
T1 construct: A membrane fraction prepared from swine ventricular muscle; from tissue; host or cells: swine ventricular muscle membrane fraction
T1 sequence (Q29010 21-427): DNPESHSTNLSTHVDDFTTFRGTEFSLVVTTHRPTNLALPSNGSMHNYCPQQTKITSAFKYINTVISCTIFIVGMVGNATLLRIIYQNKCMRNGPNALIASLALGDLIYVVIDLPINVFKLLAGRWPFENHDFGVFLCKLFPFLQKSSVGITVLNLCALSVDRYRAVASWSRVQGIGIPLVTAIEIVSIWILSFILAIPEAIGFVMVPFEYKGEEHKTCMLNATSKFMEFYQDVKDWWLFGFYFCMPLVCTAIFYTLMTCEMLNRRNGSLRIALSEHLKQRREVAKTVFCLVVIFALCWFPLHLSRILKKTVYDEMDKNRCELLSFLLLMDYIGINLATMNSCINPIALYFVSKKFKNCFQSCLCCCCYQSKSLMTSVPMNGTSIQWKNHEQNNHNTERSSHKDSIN
Experimental: Determination of endothelin receptor binding activity (1) Determination of ETA receptor binding activity
A membrane fraction prepared from swine ventricular muscle was diluted to 12 μg/ml with an assaying buffer and dispensed to assaying tubes at 100 μl per tube. To this membrane fraction suspension were added 2 μl of a solution of endothelin-l labeled with 100 pmole of radioactive iodine ([^125 I]ET-1, produced by Amersham Medical Ltd.) and 3 μl of a solution of the subject compound at various concentrations, followed by incubation at 25° C. for 1 hour. The suspension was then diluted with an ice-cooled assaying buffer and filtered through a glass filter GF/F (produced by Whatman K.K.). The membrane fraction containing endothelin A (ETA) receptors and receptor-bound [^125 I)ET-1 were recovered on the filter. The radioactivity retained on the filter was measured to obtain the amount of [^125 I]ET-1 bound to the ETA receptors. The amount of [^125 I,]ET-1 bound in the presence of ET-1 in great excess as the test compound was taken as the amount of nonspecific binding. The amount of specific binding (SPB) of [^125 I]ET-1 was obtained by subtracting the amount of nonspecific binding from the total amount of binding determined. The percent SPB value at test compound concentration C (molar concentration by volume) was defined as the percent ratio of the amount of specific binding relative to the amount of specific binding obtained at a test compound concentration of 0. The thus-obtained value was substituted for the following "pseudo-Hill's equation" to calculate the test compound concentration (IC50 value) required to have a value of 50% for the amount of specific binding of [125I]ET-1.
(§1) log[%SPB/(100 - %SPB)]=n[logC - log(IC50)]
(§2) n: Pseudo-Hill's coefficient

[2] = molecular target: T2, endothelin B (ETB) receptors (Bos taurus, UniProt P28088); assay: Determination of ETB receptor binding activity ([125I]ET-1, bovine brain membrane fraction); details: [125I]ET-1 binding, 25° C., 1 hour
T2 construct: A membrane fraction prepared from a bovine brain; from tissue; host or cells: bovine brain membrane fraction
T2 sequence (P28088 27-441): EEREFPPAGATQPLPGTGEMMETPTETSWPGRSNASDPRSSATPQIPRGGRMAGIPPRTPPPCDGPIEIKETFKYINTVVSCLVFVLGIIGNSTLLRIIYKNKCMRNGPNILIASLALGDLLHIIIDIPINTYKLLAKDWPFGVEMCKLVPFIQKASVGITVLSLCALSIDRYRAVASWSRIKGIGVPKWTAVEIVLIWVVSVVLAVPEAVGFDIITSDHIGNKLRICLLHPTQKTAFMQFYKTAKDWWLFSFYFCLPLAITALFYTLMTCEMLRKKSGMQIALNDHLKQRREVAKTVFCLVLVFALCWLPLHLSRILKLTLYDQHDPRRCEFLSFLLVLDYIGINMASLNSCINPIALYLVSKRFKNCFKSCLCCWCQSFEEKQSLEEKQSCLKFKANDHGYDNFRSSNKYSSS
Experimental: (2) Determination of ETB receptor binding activity
A membrane fraction prepared from a bovine brain was diluted to 150 μg/ml with an assaying buffer and dispensed to assaying tubes at 100 μl per tube. To this membrane fraction suspension were added 2 μl of a solution of endothelin-1 labeled with 100 pM of radioactive iodine ([^125 I]ET-1, produced by Amersham Medical Ltd.) and 3 μl of a solution of the subject compound at various concentrations, followed by incubation at 25° C. for 1 hour. The suspension was then diluted with an ice-cooled assaying buffer and filtered through a glass filter GF/F (produced by Whatman K.K.). The membrane fraction containing endothelin B (ETB) receptors and receptor-bound [^125 I)ET-1 were recovered on the filter. The radioactivity retained on the filter was measured to obtain the amount of (^125 I]ET-1 bound to the ETB receptors. The amount of (^125 I]ET-1 bound in the presence of ET-1 in great excess as the test compound was taken as the amount of nonspecific binding. The amount of specific binding (SPB) of [^125 I]ET-1 was obtained by subtracting the amount of nonspecific binding from the total amount of binding determined. The percent SPB value at test compound concentration C (molar concentration by volume) was defined as the percent ratio of the amount of specific binding relative to the amount of specific binding obtained at a test compound concentration of 0. The thus-obtained value was substituted for the following "pseudo-Hill's equation" to calculate the test compound concentration (IC50 value) required to have a value of 50% for the amount of specific binding of [^125 I]ET-1.
as §1, §2

[3] = system: porcine coronary vein ring preparations constricted with sarafotoxin S6c; assay: Determination of porcine coronary vein relaxation activity; details: peptide at 0.01 μM; vein constricted with S6c 1 nM for 45 min; relative to constriction of S6c (100%)
Experimental: Determination of porcine coronary vein relaxation activity
Ring preparations of porcine coronary vein (3 mm in a diameter) were placed in an organ bath filled with Krebs solution gassed with 95% O2 /5%CO2 at 37° C. and allowed to stand for 1.5 h at a resting load of 0.5 g tension for vein. The preparations were constricted with 60 mM KCl for 15 min and then washed and allowed to stand for 1.5 h at the resting load. The vein preparations constricted with sarafotoxin S6c (S6c) at 1 nM for 45 min were used to determine the effect of the peptide of Example 4 at 0.01 μM. Result is shown in the following Table as the relaxation rate relative to the constriction of S6c (100%).

Molecule | IC50 [1] | IC50 [2] | relaxation rate (%) [3]
COc1ccccc1N1CCN(C(=O)C[C@@H]2NC(=O)[C@@H](CC(=O)O)NC(=O)[C@@H](Cc3c[nH]c4ccccc34)NC(=O)[C@H](CC(C)C)NC(=O)[C@@H](CC(C)(C)C)NC(=O)[C@H](CC(=O)O)NC2=O)CC1 [Example 1, cyclo[--D--Asp--Asp(B7)--Asp--D--γMeLeu--L--Leu--D--Trp--]] (cyclo(D(Piperazinyl(4-(2-MeOPh)))D[d(tBuAla)]L[dW][dD])) | 0.18 nM | 11 nM | 
CC(C)C[C@@H]1NC(=O)[C@@H](CC(C)(C)C)NC(=O)[C@H](CC(=O)O)NC(=O)[C@H](CC(=O)N2CCN(c3ccccc3)CC2)NC(=O)[C@@H](CC(=O)O)NC(=O)[C@@H](Cc2c[nH]c3ccccc23)NC1=O [Example 2, cyclo(--D--Asp--L--Asp(B1)--L--Asp--D--γMeLeu--L--Leu--D--Trp--)] (cyclo(D(Piperazinyl(4-Ph))D[d(tBuAla)]L[dW][dD])) | 0.18 nM | 28 nM | 
COc1ccccc1N1CCN(C(=O)C[C@@H]2NC(=O)[C@@H](CC(=O)O)NC(=O)[C@@H](Cc3cn(C(C)=O)c4ccccc34)NC(=O)[C@H](CC(C)C)NC(=O)[C@@H](CC(C)(C)C)NC(=O)[C@H](CC(=O)O)NC2=O)CC1 [Example 3, cyclo(--D--Asp--L--Asp(B7)--L--Asp--D--γMeLeu--L--Leu--D--Trp(Ac)--)] (cyclo(D(Piperazinyl(4-(2-MeOPh)))D[d(tBuAla)]L[dW](Ac)[dD])) | 0.49 nM | 14 nM | 
CC(C)C[C@@H]1NC(=O)[C@@H](c2cccs2)NC(=O)[C@H](CC(=O)O)NC(=O)[C@H](CC(=O)N2CCN(c3ccccc3)CC2)NC(=O)[C@@H](CC(=O)O)NC(=O)[C@@H](Cc2c[nH]c3ccccc23)NC1=O [Reference Example 1, cyclo(--D--Asp--L--Asp(B1)--L--Asp--D--Thg(2)--L--Leu--D--Trp--), reference compound] (cyclo(D(Piperazinyl(4-Ph))D[dGly(2-thienyl)]L[dW][dD])) | 0.08 nM | 120 nM | 
cyclo[--D--Asp--Asp(B7)--Asp--D--γMeLeu--Leu--D--Trp--].2Na [Example 4] |  |  | 66%
